The test system of this test is 156681-154-R-J1 tumor spheroid viability. The test is described as follows: Anticancer human tumor 156681-154-R-J1 patient-derived melanoma cell line growth inhibition. The note with it: spheroids with HUVEC and MSC; for viability, T/C: stronger effect = lower value. An excerpt:
Multicellular complex tumor spheroid response to DNA repair inhibitors in combination with DNA-damaging drugs
This study explores the anticancer activities of DNA-damaging drugs and inhibitors of DNA damage repair, both as single agents and in combinations. Complex tumor spheroids comprised of malignant cells, endothelial cells and mesenchymal stem cells served as an in vitro model for human solid tumors. This model system incorporates physiologically relevant features and patient-derived or established malignant cell lines with clinically relevant genetic alterations from many tumor types. Twenty-six patient-derived or established malignant cell lines were evaluated representing sarcoma, melanoma, small cell lung cancer (SCLC), non-small cell lung cancer (NSCLC), as well as bladder, ovarian and pancreatic cancers. The concentration ranges selected for each drug and investigational agent were based upon clinically achievable concentrations if the clinical Cmax of the agent was known.
Compounds. The drugs and compounds olaparib (NSC753686), talazoparib (NSC767125), berzosertib (NSC777718), elimusertib (NSC800525), nedisertib (NSC802822), VX-984 (NSC792969), AZD-1390 (NSC803789), temozolomide (NSC362856), topotecan (NSC609699), trabectedin (NSC813783), staurosporine (NSC755774), and gemcitabine (NSC613327) were obtained from the National Cancer Institute (NCI) Developmental Therapeutics Program Chemical Repository. The FDA-approved anticancer drug set is available from the Developmental Therapeutics Program at https://dtp.cancer.gov/organization/dscb/obtaining/available_plates.htm. […] The stock solutions were prepared in dimethyl sulfoxide (DMSO, Sigma-Aldrich, St. Louis, MO, cat. D2650) at 400-fold the tested concentration and stored at -70 degrees C. Prior to their use, the stock solutions were diluted in fresh medium and the final DMSO concentration in the assay was 0.25% (v/v). All drugs and investigational agents were tested over a range starting from a high concentration at or near the clinical Cmax and decreasing in half-log increments. If the clinical Cmax for an agent had not been determined, the highest concentration tested was 10 microM.
Cell Lines. The patient-derived cancer cell (PDC) lines: 156681-154-R-J1-PDC, 283228-195-R-J1-PDC, 287954-098-R-J1-PDC, 292921-168-R-J2-PDC, 349418-098-R-PDC, 425362-245-T-J1-PDC, 556581-035-R-J1-PDC, and BL0293-F563-PDC were received from the NCI Patient-Derived Models Repository (PDMR, https://pdmr.cancer.gov). The established cell lines HS-SY-2 (RRID:CVCL_8719), MPNST, and SYO-1 (RRID:CVCL_7146) were obtained from the Sloan Kettering Institute. The alveolar soft parts sarcoma cell line ASPS-1 (RRID:CVCL_S738) was established at the NCI and grown from internal seed stocks. The following established cell lines were purchased from the American Type Culture Collection (ATCC, Manassas, VA): G-401 (ATCC, cat. CRL-1441, RRID:CVCL_0270), SW982 (ATCC, cat. HTB-93, RRID:CVCL_1734), VA-ES-BJ (ATCC, cat. CRL-2138, RRID:CVCL_1785), NCI-H719 (ATCC, cat. CRL-5837, RRID:CVCL_1582), NCI-H196 (ATCC, cat. CRL-5823, RRID:CVCL_1509), NCI-H841 (ATCC, cat. CRL-5845, RRID:CVCL_1595), NCI-H1618 (ATCC, cat. CRL-5879, RRID:CVCL_1480), NCI-H1876 (ATCC, cat. CRL-5902, RRID:CVCL_1503), DMS 114 (ATCC, cat. CRL-2066; RRID:CVCL_1174), NCI-H211 (ATCC, cat. CRL-5824; RRID:CVCL_1529), and SW 1271 (ATCC, cat. CRL-2177, RRID:CVCL_1716). The small cell lung cancer cell line COR-L88 was purchased from Sigma-Aldrich (cat. 92031917-1VL, RRID:CVCL_1141). The non-small cell lung cancer cell lines NCI-H226 (RRID:CVCL_1544) and NCI-H322M (RRID:CVCL_1557) were established at the NCI and grown from internal seed stocks. Pooled donor human umbilical vein endothelial cells (HUVEC, Lonza, cat. CC-2519) and human mesenchymal stem cells (hMSC, Lonza, cat. PT-2501) were purchased from Lonza (Walkersville, MD).
Cell Culture. All cells were maintained in an incubator at 37 degrees C and 5% CO2 with 95% humidity. […]

The mark [1] stands for this setting: compound alone, run of 10/17/2019.
Where [2] appears, read: compound alone, run of 10/25/2019.

Values joined by “and” are separate entries in the source; they are usually repeats but may differ in a detail not shown here. Identical values can stand only once.
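Further: spheroids exposed to compounds for 7 days before readout.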
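Wherever viability, T/C is given: percent of vehicle control viability where 100% = DMSO-treated spheroids.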

With `CC(C)n1c(=O)n(C)c2cnc3cc(F)c(-c4ccc(OCCCN5CCCCC5)nc4)cc3c21`, the viability, T/C is 106% and 92.3% and 88.9% (compound 0.0316 µM); 101% (2×) and 102% (compound 0.1 µM); 97.7% and 98.2% and 112% (compound 0.316 µM); 100% and 106% and 96.7% (compound 1 µM); 98.3% and 109% (2×) (compound 3.16 µM); 78.9% and 100% and 96.5% (compound 10 µM). In addition, the IC50 (curve of compound) was above 10 µM.

In the case of `CC1COCCN1c1cc(-c2ccnn2C)c2ccnc(-c3ccn[nH]3)c2n1` (centres undefined), the viability, T/C (compound 0.0316 µM) is 83.8% and 68.1% and 84.5%; the viability, T/C (compound 0.1 µM) is 77.6% and 66% and 75.6%; the viability, T/C (compound 0.316 µM) is 37.2% and 34.3% and 47.2%; the viability, T/C (compound 1 µM) was 30.1% and 21.7% and 29.9%; the viability, T/C (compound 3.16 µM) was 31.1% and 24.6% and 29.9%; the viability, T/C (compound 10 µM) is 25.2% and 20.8% and 22.6%. Moreover, the 50% inhibitory concentration (IC50) (curve of compound) is 0.22 µM and 0.179 µM and 0.286 µM.

With `CC[C@@]1(O)C(=O)OCc2c1cc1n(c2=O)Cc2cc3c(CN(C)C)c(O)ccc3nc2-1`, the viability, T/C was 85.4% [middle of 10 runs] (compound 0.00949 µM), 22.1% [middle of 10 runs] (compound 0.0949 µM) and 31.3% [middle of 10 runs] (compound 0.3 µM). Besides, the IC50 was 39.5 nM [middle of 5 runs] under setting [1] and 45.2 nM [middle of 5 runs] under setting [2].

Turning to `CNCc1ccc(-c2cc(-c3nc(-c4ccc(S(=O)(=O)C(C)C)cc4)cnc3N)on2)cc1`, the viability, T/C reads like this: (compound 0.00949 µM) 96.4% and 93.6% and 109%; (compound 0.03 µM) 103% and 118% and 115%; (compound 0.0949 µM) 95.8% and 90.1% and 96.7%; (compound 0.3 µM) 89% and 71.3% and 84.3%; (compound 0.949 µM) 59.4% and 53.5% and 57.1%; (compound 3 µM) 24.5% and 15.9% and 19.6%. The half-inhibitory concentration (IC50) (curve of compound) was 1.29 µM and 0.931 µM and 1.17 µM.

As for `COc1cc(C)[nH]c(=O)c1CN1CCc2c(Cl)cc(C(OC)C3COC3)c(Cl)c2C1=O` (centres undefined), the viability, T/C (compound 0.0316 µM) was 84.3% and 79.3% and 103%; the viability, T/C (compound 0.1 µM) was 96.4% and 99.4% and 110%; the viability, T/C (compound 0.316 µM) was 99% and 102% and 105%; the viability, T/C (compound 1 µM) is 91.7% and 88.1% and 112%; the viability, T/C (compound 3.16 µM) is 86% and 95.8% and 122%; the viability, T/C (compound 10 µM) is 107% and 93% and 118%. Also, the IC50 (curve of compound) is above 10 µM.

For the compound `COc1cc2c(cc1O)CCNC21CSC2c3c(OC(C)=O)c(C)c4c(c3C(COC1=O)N1C(O)C3Cc5cc(C)c(OC)c(O)c5C(C21)N3C)OCO4` (centres undefined), the viability, T/C by setting is: (compound 30 pM) 95.8% [middle of 10 runs]; (compound 94.9 pM) 101% [middle of 10 runs]; (compound 0.0003 µM) 80.7% [middle of 10 runs]; (compound 0.000949 µM) 4.41% [middle of 10 runs]; (compound 0.003 µM) 0.17% [middle of 9 runs]. Further, the IC50 under setting [2] is 0.477 nM [middle of 10 runs].

On to `COc1ccc([C@@H](O)c2cc(-c3ncnc4cc(N5CCOCC5)ccc34)c(F)cc2Cl)nn1`, for which the viability, T/C is, setting by setting: (compound 0.0316 µM) 95.2% and 80.1% and 80.3%; (compound 0.1 µM) 99.7% and 89.8% and 88%; (compound 0.316 µM) 88% and 84.6% and 86.1%; (compound 1 µM) 71.3% and 63.9% and 76.9%; (compound 3.16 µM) 59.8% and 60.9% and 55.3%; (compound 10 µM) 46.2% and 62.8% and 43.4%. Also, under “curve of compound”, the IC50 was 7.33 µM and > 10 µM and 5.22 µM.

As for `Cc1cc(C)c(CNC(=O)c2cc(-c3ccc(CN4CCOCC4)cc3)cc3c2cnn3C2CCCC2)c(=O)[nH]1`, the viability, T/C is 80.8% and 92.1% and 108% (compound 0.0316 µM); 101% and 82.4% and 85.2% (compound 0.1 µM); 85.4% and 99.5% and 97.3% (compound 0.316 µM); 97.1% and 73% and 93.2% (compound 1 µM); 90.4% and 89.8% and 92.5% (compound 3.16 µM); 90% and 87.1% and 91.1% (compound 10 µM). The IC50 (curve of compound) was above 10 µM.

Take `Cc1sc2c(c1C)C(c1ccc(Cl)cc1)=NC(CC(=O)Nc1ccc(O)cc1)c1nnc(C)n1-2` (centres undefined): the viability, T/C by setting is: (compound 0.00949 µM) 77.1% and 103% and 87%; (compound 0.03 µM) 89.1% and 92% and 94.1%; (compound 0.0949 µM) 83.7% and 95.2% and 98%; (compound 0.3 µM) 70% and 80.3% and 96.3%; (compound 0.949 µM) 70.8% and 58.4% and 64.4%; (compound 3 µM) 38.2% and 42.2% and 73%. For the setting “curve of compound”, the IC50 is 1.92 µM and 1.73 µM and > 3 µM.

Consider `Cn1ncnc1[C@H]1c2n[nH]c(=O)c3cc(F)cc(c23)N[C@@H]1c1ccc(F)cc1`, for which the viability, T/C (compound 0.00949 µM) is 69.9% and 99.2% and 102%; the viability, T/C (compound 0.03 µM) was 71.1% and 90.5% and 84.6%; the viability, T/C (compound 0.0949 µM) was 79.2% and 71.3% and 86.4%; the viability, T/C (compound 0.3 µM) was 71.5% and 69% and 85.9%; the viability, T/C (compound 0.949 µM) is 67.1% and 59.8% and 73.4%; the viability, T/C (compound 3 µM) is 8.93% and 21.2% and 16.4%. In addition, the IC50 (curve of compound) is 1.33 µM and 0.993 µM and 1.5 µM.

As to `Cn1nnc2c(C(N)=O)ncn2c1=O`, the viability, T/C is, setting by setting: (compound 1 µM) 90.8% [middle of 10 runs]; (compound 31.6 µM) 57.1% [middle of 10 runs]. For the same compound, the half-inhibitory concentration (IC50) under setting [1] was 81 µM and > 100 µM and 72.6 µM.

With `O=C(c1cc(Cc2n[nH]c(=O)c3ccccc23)ccc1F)N1CCN(C(=O)C2CC2)CC1`, the viability, T/C reads like this: (compound 0.0949 µM) 84% and 87.4% and 95%; (compound 0.3 µM) 82.5% and 83.7% and 107%; (compound 0.949 µM) 103% and 85.3% and 77.8%; (compound 3 µM) 64.4% and 72.5% and 82.7%; (compound 9.49 µM) 62.2% and 60.3% and 65.8%; (compound 30 µM) 50.7% and 52.9% and 63.1%. The half-maximal inhibitory concentration (IC50) (curve of compound) is above 30 µM.

For `[2H]c1nc(C)nc([2H])c1-c1cc(NC[C@@H](C)c2cccc3c(C(=O)NC)ccnc23)ncn1`, the viability, T/C is, setting by setting: (compound 0.0316 µM) 84.5% and 81.3% and 110%; (compound 0.1 µM) 98.4% and 80% and 94.7%; (compound 0.316 µM) 91.8% and 92.6% and 92.1%; (compound 1 µM) 86.1% and 87.3% and 89.5%; (compound 3.16 µM) 91.8% and 77.7% and 88.6%; (compound 10 µM) 86.8% and 70% and 99.2%. Further, under “curve of compound”, the concentration for half-maximal inhibition (IC50) was above 10 µM.

These data come from PubChem BioAssay AID1845195 (Molecular Pharmacology Branch, DTP, NCI, 2023).
